Data published in patent publication US11491184B2, “Liquids rich in noble gas and methods of their preparation and use” (THE BOARD OF REGENTS OF THE UNIVERSITY OF TEXAS SYSTEM, priority 2013, dated 2022).
Converted amounts (≈) assume the structure as drawn.

What was measured:
[1] = cited from earlier work; for concentration dissolved in water: standard temperature and pressure
[2] = tested on: apolipoprotein-E (Apo E) knockout (KO) mice; assay: Echocardiographic measurements after oral Xe-rich solution, Apo E KO mice on high fat diet; format: in vivo
Description: (§1) All animal studies were approved by the Animal Welfare Committee at The University of Texas Health Science Center at Houston. C57BL/6J wild type (WT) and apolipoprotein-E (Apo E) knockout (KO) mice were purchased from Jackson Laboratory (Bar Harbor, Me., USA), see, e.g., Meir et al., 2004, incorporated herein by reference. The control WT mice used were C57BL/6J, which share the same genetic background with the Apo E KO mice. Six- to eight-month-old male WT and KO mice were fed control or high fat diet (Harlan Laboratories, USA) and administered control or Xe-rich solution (200 μl, once a day) and water drink for 6 weeks, since the Apo E KO mice type fed a high fat diet develop atherosclerotic lesions.
(§2) Baseline measurements by echocardiography were obtained before feeding with the high fat diet. Cardiac morphology and function were assessed by serial M-mode echocardiography using a Vevo 770 Imaging System (VisualSonics Inc., Ontario, Canada) equipped with a 30 MHz microprobe. M-mode ventricular measurements were taken at 6-weeks after the feeding. Electrocardiographic (ECG) data was obtained. Echo data (HR, heart rate; LVID, left ventricular internal dimension; IVS, intra-ventricular septum; LVPW, left ventricular posterior wall; FS, fractional shortening; SV, stroke volume; EF, ejection fraction; CO, cardiac output; LV Vol, LV volume; LV mass corrected) were analyzed with the analysis software (VisualSonics Inc., Ontario, Canada).
(§3) Animals were divided into 5 groups (see experiment setting). Echocardiography was used to assess cardiac dimensions and function at baseline, and at 6-weeks following the Xe exposure (FIGS. 1 and 2; Table 1). Cardiac size of WT and KO hearts were determined with LV mass (corrected) and normalized to body weight (mg/g) following 6-weeks of the Xe exposure (FIG. 3A).

[3] = Measurement of Xe dissolved / encapsulated in water and hp-beta-CD; format: physicochemical; conditions: 3 atm
Description: Xenon was enclosed into a soluble caged molecules (e.g., cyclodextrin). To remove possible residue molecules from cage, the caged molecular was baked at 40-80° C. under vacuum for overnight. To enclose xenon into caged molecules, xenon was incubated with caged molecular in a sealed vial under 2-10 atm pressure at […]. for overnight to 3 days.
Pure water was degassed under 20-80 mbar vacuum at room temperature for overnight. Xenon (99.999% Medical grade, Matheson Tri-Gas®, Houston, Tex., USA) was re-dissolved into degassed water by pressure water with 2-10 atm xenon gas at 4° C. for overnight to 3 days.
Xe-rich-water is composed of Xe directly dissolved in water and caging with hydroxypropyl-beta-cyclodextrin (hp-beta-CD) in water. […]
To measure the amount of Xe dissolved in a Xe-rich-water. […] The solution was then warmed up to 80° C. in a vial with a silicone-rubber seal (Thermo Scientific SepraSeal® (Thermo Scientific, Hudson, N.H., USA) sealed top for 2 hours. After cooling down to room temperature, a syringe with a 17 gauge needle was inserted into a vial through the silicone-rubber seal. The released Xe gas present in the top spacer formed pressure, which pushed Xe gas into the syringe. The amount of Xe released into syringe was then measured.

[4] = tested on: apolipoprotein-E (Apo E) knockout (KO) mice; assay: Electrocardiographic (ECG) data after Xe-rich solution; format: in vivo; conditions: KO6w treated with Xe, 6-weeks time point
Description: as §1
as §2, with “M-mode ventricular measurements were taken at 6-weeks after the feeding. Electrocardiographic (ECG) data was obtained.” left out

[5] = Stated solubility / dissolved concentration of gases and hp-beta-CD; format: physicochemical; conditions: room temperature and 1 atm
[6] = tested on: apolipoprotein-E (Apo E) knockout (KO) mice; assay: Heart weight normalized to body weight after Xe-rich solution; format: in vivo; conditions: KO6w Xe vs KO6w vehicle, 6 weeks
Description: as §1, §3

[7] = tested on: Brain-derived Neurotrophic Factor (BDNF); assay: BDNF Sandwich ELISA of heart and brain after Xe-rich solution; format: in vivo, mice; conditions: KO6w Xe vs vehicle, 6 weeks
Description: All animal studies were approved by the Animal Welfare Committee at The University of Texas Health Science Center at Houston. C57BL/6J wild type (WT) and apolipoprotein-E (Apo E) knockout (KO) mice were purchased from Jackson Laboratory (Bar Harbor, Me., USA), see, e.g., Meir et al., 2004, incorporated herein by reference. The control WT mice used were C57BL/6J, which share the same genetic background with the Apo E KO mice. […]
Fresh frozen heart and brain tissues were slightly thawed on crushed ice to allow dissection of the hearts and brains. […] The protein concentration was determined using a Bradford Protein Assay (Bio-Rad, Calif., USA).
Except for the heart and brain extracts, the samples (such as plasma) were thawed and clarified at 12,000 rpm for 10 min at 4° C. prior to ELISA assays for β-amyloid per the manufacturer's instructions. BDNF and β-amyloid peptide (Aβ1-40) content were determined by using BDNF Sandwich ELISA Kit (Millipore Corporation, MA, USA) and a Mouse/Rat Amyloid β (1-40) High Specific ELISA Assay Kit (IBLAmerican, Minneapolis, Minn., USA). […] was measured by using SpectroMax Microplate reader (Bio-Tek Instruments) at 450 nm. All samples were analyzed in duplicate.

[8] = chronic oral administration; cited from earlier work
[9] = KO6w Xe vs KO6w vehicle, 6 week time point

With `CC(O)COC[C@H]1O[C@@H]2O[C@H]3[C@H](O)[C@@H](O)[C@@H](O[C@H]4[C@H](O)[C@@H](O)[C@@H](O[C@H]5[C@H](O)[C@@H](O)[C@@H](O[C@H]6[C@H](O)[C@@H](O)[C@@H](O[C@H]7[C@H](O)[C@@H](O)[C@@H](O[C@H]8[C@H](O)[C@@H](O)[C@@H](O[C@H]1[C@H](O)[C@H]2O)O[C@@H]8COCC(C)O)O[C@@H]7COCC(C)O)O[C@@H]6COCC(C)O)O[C@@H]5COCC(C)O)O[C@@H]4COCC(C)O)O[C@@H]3COCC(C)O` (stereo partly drawn) [hp-beta-CD, Hydroxypropyl-beta-cyclodextrin] as the molecule, how does the Solubility [1] read?
Its Solubility is 330 mg/mL (≈ 214 mM).

Which “concentration dissolved in water” value [1] does the source give for `[Ar]` [Ar, Argon] here?
The value was “about 55 μg/ml”.

Which results are given for `[Xe]` [Xe, Xenon]?
increase in LV mass (corrected) ([2]; KO6w Xe vs KO6w vehicle and KO6w control, 6 weeks, Xe-rich solution 200 μl once a day): blocked; wall thickness increase (IVS, LVPW) ([2]; KO6w Xe vs KO6w vehicle and KO6w/control, 6 weeks): significantly blocked; decrease in LV ejection fraction (EF) [2, 9]: significantly blocked; decrease in LV fractional shortening (FS) [2, 9]: significantly blocked; decrease in cardiac output (CO) [2, 9]: significantly blocked; heart rate (HR) increase, in words ([2]; KO6w given Xe, 6 weeks): blocked; xenon encapsulated in a hp-beta-CD cage ([3]; −80° C., 0.5 mg/ml of hp-beta-CD): 5 mL; xenon gas dissolved into 5 ml water ([3]; degassed water, pure xenon gas, 4° C., 4 hours to overnight): 6.5 mL; ECG changes in T wave, ST segment and QRS complex (myocardial ischemia) [4]: did not occur; Xe in an oil, such as olive oil [5]: about 12 mg Xe/ml; concentration dissolved in water [1]: about 600 μg/ml; heart weight normalized to body weight [6]: Decreased; relative BDNF levels in heart [7]: further increased

Which acceptably safe dose [8] does the source give for cyclodextrin here?
The acceptably safe dose was “about 1,000 mg/kg/day”.
